Values after ≈ are worked out from the molar mass of the structure shown.
Legend:
[1] = system: Staph. haemolyticus OCC 2223; test: MIC in Nutrient Broth No. 2; type: cell-based, Staphylococcus haemolyticus; settings: Staphylococcus haemolyticus, OCC2223; Nutrient Broth No. 2, 24 h, 37° C.; inducer not specified; read-out: MIC
Protocol: (§1) Bacteria species as indicated in Table 1 were incubated for approximately 24 hours at 37° C.
(§2) The tests were repeated with the addition of inducers. Methyl glycoside was the main inducer used, but other suitable inducers include isopropyl-β-D-thiogalactopyranoside, p-nitrophenyl-α-L-arabinopyranoside and p-nitrophenyl-β-D-xylopyranoside. Concentration of inducer in all cases was 100 μg/ml.

[2] = system: Strep. pneumoniae ATCC 6305; test: MIC in Nutrient Broth No. 2; type: cell-based, Streptococcus pneumoniae; settings: Streptococcus pneumoniae, ATCC6305; Nutrient Broth No. 2, 24 h, 37° C.; inducer not specified; read-out: MIC
Protocol: as §1, §2

[3] = system: Crono. sakazakii ATCC 29544; test: MIC in Nutrient Broth No. 2; type: cell-based, Cronobacter sakazakii; settings: Cronobacter sakazakii, ATCC29544; Nutrient Broth No. 2, 24 h, 37° C.; inducer not specified; read-out: MIC
Protocol: as §1, §2

Ent. cloacae ATCC 13047 = test: MIC in Nutrient Broth No. 2; type: cell-based, Enterobacter cloacae; settings: Enterobacter cloacae, ATCC13047; Nutrient Broth No. 2, 24 h, 37° C.; inducer not specified; read-out: MIC
Protocol: as §1, §2

Staph. epidermidis = test: MIC in Nutrient Broth No. 2; type: cell-based, Staphylococcus epidermidis; settings: Staphylococcus epidermidis; 3 strains; Nutrient Broth No. 2, 24 h, 37° C.; inducer not specified; read-out: MIC
Protocol: as §1, §2

[4] = system: Bacteria species as indicated in Table 1; test: MIC in Nutrient Broth No. 2 (over organisms of Table 1); type: cell-based; settings: Table 1 organisms
Protocol: as §1, §2

E. hermanii ATCC 33650 = test: MIC in Nutrient Broth No. 2; type: cell-based, Escherichia hermanii; settings: Atlantibacter hermannii, ATCC33650; Nutrient Broth No. 2, 24 h, 37° C.; inducer not specified; read-out: MIC
Protocol: as §1, §2

[5] = system: Kleb. aerogenes NCTC 88167; test: MIC in Nutrient Broth No. 2; type: cell-based, Klebsiella aerogenes; settings: Klebsiella aerogenes, NCTC88167; Nutrient Broth No. 2, 24 h, 37° C.; inducer not specified; read-out: MIC
Protocol: as §1, §2

[6] = system: Strep. pyogenes ATCC 19615; test: MIC in Nutrient Broth No. 2; type: cell-based, Streptococcus pyogenes; settings: Streptococcus pyogenes, ATCC19615; Nutrient Broth No. 2, 24 h, 37° C.; inducer not specified; read-out: MIC
Protocol: as §1, §2

[7] = system: Strep. agalactiae OCC 182; test: MIC in Nutrient Broth No. 2; type: cell-based, Streptococcus agalactiae; settings: Streptococcus agalactiae, OCC182; Nutrient Broth No. 2, 24 h, 37° C.; inducer not specified; read-out: MIC
Protocol: as §1, §2

Strep. viridans OCC 234 = test: MIC in Nutrient Broth No. 2; type: cell-based, Streptococcus viridans; settings: Streptococcus viridans, OCC234; Nutrient Broth No. 2, 24 h, 37° C.; inducer not specified; read-out: MIC
Protocol: as §1, §2

[8] = system: Staph. saprophyticus ATCC 15305; test: MIC in Nutrient Broth No. 2; type: cell-based, Staphylococcus saprophyticus; settings: Staphylococcus saprophyticus, ATCC15305; Nutrient Broth No. 2, 24 h, 37° C.; inducer not specified; read-out: MIC
Protocol: as §1, §2

[9] = system: Proteus mirabilis ATCC 12453; test: MIC in Nutrient Broth No. 2; type: cell-based; settings: Proteus mirabilis, ATCC12453; Nutrient Broth No. 2, 24 h, 37° C.; inducer not specified; read-out: MIC
Protocol: as §1, §2

Hafnia alvei ATCC 13337 = test: MIC in Nutrient Broth No. 2; type: cell-based; settings: Hafnia alvei, ATCC13337; Nutrient Broth No. 2, 24 h, 37° C.; inducer not specified; read-out: MIC
Protocol: as §1, §2

[10] = system: Citrobacter freundii OCC 851; test: MIC in Nutrient Broth No. 2; type: cell-based; settings: Citrobacter freundii, OCC851; Nutrient Broth No. 2, 24 h, 37° C.; inducer not specified; read-out: MIC
Protocol: as §1, §2

[11] = system: Aeromonas hydrophila OCC 778; test: MIC in Nutrient Broth No. 2; type: cell-based; settings: Aeromonas hydrophila, OCC778; Nutrient Broth No. 2, 24 h, 37° C.; inducer not specified; read-out: MIC
Protocol: as §1, §2

Salmonella = test: MIC in Nutrient Broth No. 2; type: cell-based; settings: Salmonella; 11 strains; Nutrient Broth No. 2, 24 h, 37° C.; inducer not specified; read-out: MIC
Protocol: as §1, §2

Escherichia coli = test: MIC in Nutrient Broth No. 2; type: cell-based; settings: Escherichia coli; 8 strains; Nutrient Broth No. 2, 24 h, 37° C.; inducer not specified; read-out: MIC
Protocol: as §1, §2

[12] = system: Bacillus cereus ATCC 14579; test: MIC in Nutrient Broth No. 2; type: cell-based; settings: Bacillus cereus, ATCC14579; Nutrient Broth No. 2, 24 h, 37° C.; inducer not specified; read-out: MIC
Protocol: as §1, §2

[13] = system: Serratia marcescens OCC 217; test: MIC in Nutrient Broth No. 2; type: cell-based; settings: Serratia marcescens, OCC217; Nutrient Broth No. 2, 24 h, 37° C.; inducer not specified; read-out: MIC
Protocol: as §1, §2

[14] = system: Enterococcus faecium ATCC 19434; test: MIC in Nutrient Broth No. 2; type: cell-based; settings: Enterococcus faecium, ATCC19434; Nutrient Broth No. 2, 24 h, 37° C.; inducer not specified; read-out: MIC
Protocol: as §1, §2

Proteus vulgaris OCC 195 = test: MIC in Nutrient Broth No. 2; type: cell-based; settings: Proteus vulgaris, OCC195; Nutrient Broth No. 2, 24 h, 37° C.; inducer not specified; read-out: MIC
Protocol: as §1, §2

[15] = system: Bacillus subtilis NCTC 10073; test: MIC in Nutrient Broth No. 2; type: cell-based; settings: Bacillus subtilis, NCTC10073; Nutrient Broth No. 2, 24 h, 37° C.; inducer not specified; read-out: MIC
Protocol: as §1, §2

[16] = system: Enterococcus faecalis ATCC 29212; test: MIC in Nutrient Broth No. 2; type: cell-based; settings: Enterococcus faecalis, ATCC29212, 24 h
Protocol: as §1, §2

[17] = system: Enterobacter aerogenes ATCC 13048; test: MIC in Nutrient Broth No. 2; type: cell-based; settings: Klebsiella aerogenes, ATCC13048; Nutrient Broth No. 2, 24 h, 37° C.; inducer not specified; read-out: MIC
Protocol: as §1, §2

[18] = system: Ps. Aeruginosa ATCC 27853; test: MIC in Nutrient Broth No. 2; type: cell-based; settings: Pseudomonas aeruginosa, ATCC27853; Nutrient Broth No. 2, 24 h, 37° C.; inducer not specified; read-out: MIC
Protocol: as §1, §2

[19] = system: Kleb. pneumoniae ATCC 10031; test: MIC in Nutrient Broth No. 2; type: cell-based, Klebsiella pneumoniae; settings: Klebsiella pneumoniae, ATCC10031; Nutrient Broth No. 2, 24 h, 37° C.; inducer not specified; read-out: MIC
Protocol: as §1, §2

Staph. aureus = test: MIC in Nutrient Broth No. 2; type: cell-based, Staphylococcus aureus; settings: Staphylococcus aureus; 8 strains; Nutrient Broth No. 2, 24 h, 37° C.; inducer not specified; read-out: MIC
Protocol: as §1, §2

With `Oc1cc(Cl)ccc1Oc1ccc(Cl)cc1Cl` [Triclosan, 5-chloro-2-(2,4-dichlorophenoxy)phenol] the MIC [1] was 0.01 mg/L (≈ 0.0345 µM), the MIC [2] was 1 mg/L (≈ 3.45 µM) and the MIC [3] was 0.5 mg/L (≈ 1.73 µM). The MIC (Ent. cloacae ATCC 13047) was 0.5 mg/L (≈ 1.73 µM), the MIC (Staph. epidermidis) was 0.01 mg/L (≈ 0.0345 µM) and the “susceptibility of the organisms that were tested” value [4] was “inhibited”. It also gave an MIC (E. hermanii ATCC 33650) of 0.5 mg/L (≈ 1.73 µM), an MIC [5] of 0.5 mg/L (≈ 1.73 µM) and an MIC [6] of 1 mg/L (≈ 3.45 µM). It also gave an MIC [7] of 4 mg/L (≈ 13.8 µM), an MIC (Strep. viridans OCC 234) of 4 mg/L (≈ 13.8 µM) and an MIC [8] of 0.01 mg/L (≈ 0.0345 µM). The MIC [9] was 0.5 mg/L (≈ 1.73 µM), the MIC (Hafnia alvei ATCC 13337) was 0.1 mg/L (≈ 0.345 µM) and the MIC [10] was 0.5 mg/L (≈ 1.73 µM). For the same compound, the MIC [11] was 8 mg/L (≈ 27.6 µM), the MIC (Salmonella) was 0.5 to 1 mg/L (≈ 1.73 to 3.45 µM) and the MIC (Escherichia coli) was 0.1 to 0.5 mg/L (≈ 0.345 to 1.73 µM). It also gave an MIC [12] of 2 mg/L (≈ 6.91 µM), an MIC [13] of 64 mg/L (≈ 221 µM) and an MIC [14] of 4 mg/L (≈ 13.8 µM). For the same compound, the MIC (Proteus vulgaris OCC 195) was 0.5 mg/L (≈ 1.73 µM), the MIC [15] was 1 mg/L (≈ 3.45 µM) and the MIC [16] was 8 mg/L (≈ 27.6 µM). The MIC [17] was 0.5 mg/L (≈ 1.73 µM), the MIC [18] was 32 mg/L (≈ 111 µM) and the MIC [19] was 0.1 mg/L (≈ 0.345 µM). For the same compound, the MIC (Staph. aureus) was 0.01 mg/L (≈ 0.0345 µM).

— US9908912B2, “Triclosan derivatives and uses thereof” (priority 2012, dated 2018)
